{"source": "patent US20080305040A1", "about": "“In Vivo or in Vitro Method For Detecting Amyloid Deposits Having at Least One Amyloidogenic Protein” (UNIVERSITY OF PITTSBURGH, priority 2005, published 2008)", "test_system": "amyloid deposits in heart tissue, lung tissue, bladder tissue, lymph node tissue and bone from a subject with AL amyloidosis", "assay": "Imaging of tissues from AL amyloidosis subject: staining of paraffin sections, viewed with a UV filter set", "format": "binding", "details": "100 nM stain, 60 min, deparaffinized paraffin sections from a subject with AL amyloidosis, FIG. 1", "experimental": "Paraffin sections of heart, lung, bladder, lymph node and bone from a subject with AL amyloidosis were deparaffinized in xylene and stained with 100 nM X-34 [Styren et al. J Histochem Cytochem 48:1223-1232 (2000)] in 20% ethanol/80% 150 mM Tris Buffer (pH 7.4) or 100 nM 2-(4′-methylaminophenyl)-6-cyanobenzothiazole (6-CN-BTA-1) [Mathis et al. J Med Chem 46:2740-2754 (2003)] in PBS (pH 7.4) for 60 min followed by a brief, 5 second wash in water followed by coverslipping and viewing with an UV filter set (FIG. 1).", "data": [{"compound": "O=C(O)c1cc(/C=C/c2ccc(/C=C/c3ccc(O)c(C(=O)O)c3)cc2)ccc1O", "note": "[Example X-34]", "values": [{"measurement": "binding to amyloid deposits in heart tissue, lung tissue, bladder tissue, lymph node tissue and bone", "result": "binding"}]}, {"compound": "CNc1ccc(-c2nc3ccc(C#N)cc3s2)cc1", "note": "[Example 6-CN-BTA-1, 2-(4′-methylaminophenyl)-6-cyanobenzothiazole]", "values": [{"measurement": "binding to amyloid deposits in heart tissue, lung tissue, bladder tissue, lymph node tissue and bone", "result": "binding"}]}]}
